Laboratory results as given in patent US11945790B2 (ImmunoMolecular Therapeutics, Inc., priority 2020, dated 2024).
pEC50: −log10 of the molar value.

The compounds below were run against HLA-DQ2 (Homo sapiens, UniProt P01909+P01920) (assay: Inhibition of IL-2 secretion by TCR transductants stimulated by α-gliadin peptides presented by HLA-DQ2 expressing K562 cells (ELISA)). Conditions: inhibition of IL-2 secretion at 200 uM; tested as trans racemate unless otherwise noted; lines naming several Examples = stereoisomer mixture of those Examples.
HLA-DQ2, sequence (P01920 33-261 limits assumed, other chains not shown): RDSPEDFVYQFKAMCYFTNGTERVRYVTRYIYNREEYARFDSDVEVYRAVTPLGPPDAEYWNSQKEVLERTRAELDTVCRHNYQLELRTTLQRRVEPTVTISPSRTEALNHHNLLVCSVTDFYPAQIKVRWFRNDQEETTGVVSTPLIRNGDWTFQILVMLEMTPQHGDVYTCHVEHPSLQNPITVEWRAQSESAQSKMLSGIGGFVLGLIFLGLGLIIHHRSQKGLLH
Format: cell-based
Experimental: Three commercially available analogues of the DQ2 binding molecules of the invention were tested for their ability to inhibit stimulation of T cell receptor (TCR) transductants in the presence of HLA-DQ2 expressing cells presenting known α-gliadin epitopes.
Using a previously published in vitro assay (Ostrov D, et al. Methyldopa blocks MHC class II binding to disease specific antigens in autoimmune diabetes. J Clin Invest. 2018:128 (5)) the ability of these DQ2 binding analogues to inhibit interleukin-2 (IL-2) secretion by TCR transductants stimulated by α-gliadin peptides presented by HLA-DQ2 was determined. Individual TCR transductants (recognizing a I-gliadin or a II-gliadin) were cultured with a gliadin peptide plus the small molecule analogues in the presence of HLA-DQ2 expressing K562 cells serving as antigen presenting cells. TCR transductants cultured with no gliadin peptide served as the negative control, and incubation with an anti-CD3 antibody (eBioscience; clone 2C11) served as a positive control for the TCR transductant. Secreted IL-2 in the culture supernatant was measured using a highly sensitive enzyme-linked immunosorbent assay (ELISA). […] Assays for effects on cell viability and for specificity, assayed in the absence of gliadin peptide or in the presence of a stimulating anti-CD3 antibody, were performed. Unless otherwise noted, the stereochemistry shown below represents the relative configuration. Further, unless otherwise noted, compounds were tested as the trans racemate.

| SMILES | % Inh at 200 uM |
| --- | --- |
| O=C(COC1CC1)N1CCN(C(=O)[C@@H]2C[C@H]2c2ccccc2)CC1 (racemic) [Example 38, 2-Cyclopropoxy-1-(4-(trans-2-phenylcyclopropanecarbonyl)piperazin-1-yl) ethanone] | C (C=25-49%) |
| O=C(COC1CCC1)N1CCN(C(=O)[C@@H]2C[C@H]2c2ccccc2)CC1 (racemic) [Example 39, 2-Cyclobutoxy-1-(4-(trans-2-phenylcyclopropanecarbonyl)piperazin-1-yl) ethanone] | B (B=50-74%) |
| COCC(=O)N1CCN(C(=O)[C@@H]2C[C@H]2c2ccccc2)CC1 (relative stereo) [Example 42, [2-Methoxy-1-(4-(trans-2-phenylcyclopropane-1-carbonyl)piperazin-1-yl)ethan-1-one]] | C (C=25-49%) |
| CSCC(=O)N1CCN(C(=O)[C@@H]2C[C@H]2c2ccccc2)CC1 (relative stereo) [Example 43, [2-(Methylthio)-1-(4-(trans-2-phenylcyclopropane-1-carbonyl)piperazin-1-yl)ethan-1-one]] | C (C=25-49%) |
| CC(C)OCC(=O)N1CCN(C(=O)[C@@H]2C[C@H]2c2ccccc2)CC1 (relative stereo) [Example 44, 2-Isopropoxy-1-(4-(trans-2-phenylcyclopropanecarbonyl)piperazin-1-yl) ethanone] | C (C=25-49%) |
| CCCCOCC(=O)N1CCN(C(=O)[C@@H]2C[C@H]2c2ccccc2)CC1 (relative stereo) [Example 46, 2-Butoxy-1-(4-(trans-2-phenylcyclopropanecarbonyl)piperazin-1-yl) ethanone] | B (B=50-74%) |
| CCCCSCC(=O)N1CCN(C(=O)[C@@H]2C[C@H]2c2ccccc2)CC1 (relative stereo) [Example 47, 2-(Butylthio)-1-(4-(trans-2-phenylcyclopropane-carbonyl)piperazin-1-yl)ethanone] | B (B=50-74%) |
| O=C(COc1ccccc1)N1CCN(C(=O)[C@@H]2C[C@H]2c2ccccc2)CC1 (relative stereo) [Example 48, 2-Phenoxy-1-(4-(trans-2-phenylcyclopropanecarbonyl)piperazin-1-yl) ethanone] | B (B=50-74%) |
| O=C(CSc1ccccc1)N1CCN(C(=O)[C@@H]2C[C@H]2c2ccccc2)CC1 (relative stereo) [Example 49, 1-(4-(Trans-2-phenylcyclopropane-1-carbonyl)piperazin-1-yl)-2-(phenylthio) ethan-1-one] | C (C=25-49%) |
| Cc1ccccc1SCC(=O)N1CCN(C(=O)[C@@H]2C[C@H]2c2ccccc2)CC1 (relative stereo) [Example 50, 1-(4-(Trans-2-phenylcyclopropanecarbonyl)piperazin-1-yl)-2-(o-tolylthio)ethanone] | C (C=25-49%) |
| O=C(COC1CCCCCC1)N1CCN(C(=O)[C@@H]2C[C@H]2c2ccccc2)CC1 (relative stereo) [Example 52, 2-(Cycloheptyloxy)-1-(4-(trans-2-phenylcyclopropane-carbonyl)piperazin-1-yl)ethanone] | A (A=≥75%) |
| CC(C)c1ccc(SCC(=O)N2CCN(C(=O)[C@@H]3C[C@H]3c3ccccc3)CC2)cc1 (relative stereo) [Example 54, 2-((4-Isopropylphenyl)thio)-1-(4-(trans-2-phenylcyclopropane-1-carbonyl)piperazin-1-yl) ethan-1-one] | B (B=50-74%) |
| Cc1ccc(C)c(SCC(=O)N2CCN(C(=O)[C@@H]3C[C@H]3c3ccccc3)CC2)c1 (relative stereo) [Example 55, 2-((2,5-Dimethylphenyl)thio)-1-(4-(trans-2-phenylcyclo-propanecarbonyl)piperazin-1-yl)-ethanone] | B (B=50-74%) |
| Cc1ccc(SCC(=O)N2CCN(C(=O)[C@@H]3C[C@H]3c3ccccc3)CC2)cc1C (relative stereo) [Example 56, 2-((3,4-Dimethylphenyl)thio)-1-(4-(trans-2-phenylcyclopropanecarbonyl)piperazin-1-yl) ethanone] | B (B=50-74%) |
| O=C(CSc1ccc(Cl)cc1)N1CCN(C(=O)[C@@H]2C[C@H]2c2ccccc2)CC1 (relative stereo) [Example 57, 2-((4-Chlorophenyl)thio)-1-(4-(trans-2-phenylcyclopropane-carbonyl)piperazin-1-yl) ethanone] | B (B=50-74%) |
| O=C(CSc1ccccc1F)N1CCN(C(=O)[C@@H]2C[C@H]2c2ccccc2)CC1 (relative stereo) [Example 58, 2-((2-Fluorophenyl)thio)-1-(4-(trans-2-phenylcyclopropane-1-carbonyl)piperazin-1-yl) ethan-1-one] | A (A=≥75%) |
| O=C(CSc1ccc(F)cc1Cl)N1CCN(C(=O)[C@@H]2C[C@H]2c2ccccc2)CC1 (relative stereo) [Example 59, 2-((2-Chloro-4-fluorophenyl)thio)-1-(4-(trans-2-phenylcyclo-propanecarbonyl)piperazin-1-yl)ethanone] | C (C=25-49%) |

| SMILES | % Inh at 200 uM |
| --- | --- |
| O=C(CSc1ccccc1Cl)N1CCN(C(=O)[C@@H]2C[C@H]2c2ccccc2)CC1 (relative stereo) [Example 60, 2-((2-Chlorophenyl)thio)-1-(4-(trans-2-phenylcyclopropane-1-carbonyl)piperazin-1-yl) ethan-1-one] | B (B=50-74%) |
| Cc1cc(F)ccc1SCC(=O)N1CCN(C(=O)[C@@H]2C[C@H]2c2ccccc2)CC1 (relative stereo) [Example 61, 2-((4-Fluoro-2-methylphenyl)thio)-1-(4-(trans-2-phenylcyclopropanecarbonyl)-piperazin-1-yl)ethanone] | B (B=50-74%) |
| O=C(CSC1CCCCCC1)N1CCN(C(=O)[C@@H]2C[C@H]2c2ccccc2)CC1 (relative stereo) [Example 69, 2-(Cycloheptylthio)-1-(4-(trans-2-phenylcyclopropane-1-carbonyl)piperazin-1-yl) ethan-1-one] | A (A=≥75%) |
| Cc1ccc(SCC(=O)N2CCN(C(=O)[C@@H]3C[C@H]3c3ccccc3)CC2)c(F)c1 (relative stereo) [Example 71, 2-((2-Fluoro-4-methylphenyl)thio)-1-(4-(trans-2-phenylcyclopropane-1-carbonyl)piperazin-1-yl) ethan-1-one] | A (A=≥75%) |
| Cc1cc(Cl)ccc1SCC(=O)N1CCN(C(=O)[C@@H]2C[C@H]2c2ccccc2)CC1 (relative stereo) [Example 72, 2-((4-Chloro-2-methylphenyl)thio)-1-(4-(trans-2-phenylcyclo-propanecarbonyl)piperazin-1-yl) ethanone] | A (A=≥75%) |
| Cc1ccc(SCC(=O)N2CCN(C(=O)[C@@H]3C[C@H]3c3ccccc3)CC2)c(Cl)c1 (relative stereo) [Example 84, 2-((2-Chloro-4-methylphenyl)thio)-1-(4-(trans-2-phenylcyclo-propanecarbonyl)piperazin-1-yl) ethanone] | A (A=≥75%) |
| NC(=O)c1ccc(SCC(=O)N2CCN(C(=O)[C@@H]3C[C@H]3c3ccccc3)CC2)cc1 (relative stereo) [Example 85, 4-((2-Oxo-2-(4-(trans-2-phenylcyclopropanecarbonyl)piperazin-1-yl)ethyl)thio)benzamide] | C (C=25-49%) |
| O=C(CSc1ccc(Cl)cc1F)N1CCN(C(=O)[C@@H]2C[C@H]2c2ccccc2)CC1 (relative stereo) [Example 103, 2-((4-Chloro-2-fluorophenyl)thio)-1-(4-(trans-2-phenylcyclo-propane-1-carbonyl)piperazin-1-yl) ethan-1-one] | A (A=≥75%) |
| COC(=O)c1ccc(OCC(=O)N2CCN(C(=O)[C@@H]3C[C@H]3c3ccccc3)CC2)cc1 (relative stereo) [Example 106, Methyl 4-(2-oxo-2-(4-(trans-2-phenylcyclopropanecarbonyl)piperazin-1-yl)ethoxy) benzoate] | A (A=≥75%) |
| COC(=O)c1cccc(OCC(=O)N2CCN(C(=O)[C@@H]3C[C@H]3c3ccccc3)CC2)c1 (relative stereo) [Example 109] | A (A=≥75%) |
| O=C(CSc1ccc(F)cc1)N1CCN(C(=O)C2CC2c2ccc3c(c2)OCO3)CC1 (stereo not drawn) [Example 5] | B (B=50-74%) |
| O=C(COc1ccc(F)cc1)N1CCN(C(=O)C2CC2c2ccc3c(c2)OCO3)CC1 (stereo not drawn) [Example 6] | A (A=≥75%) |
| O=C(c1ccco1)N1CCN(C(=O)C2CC2c2ccc3c(c2)OCO3)CC1 (stereo not drawn) [Example 7] | B (B=50-74%) |
| Cc1cc(C(=O)N2CCN(C(=O)C3CC3c3ccc4c(c3)OCO4)CC2)c(C)o1 (stereo not drawn) [Example 8] | A (A=≥75%) |
| Cc1nnsc1C(=O)N1CCN(C(=O)C2CC2c2ccc3c(c2)OCO3)CC1 (stereo not drawn) [Example 9] | C (C=25-49%) |
| O=C(CSC1CCCC1)N1CCN(C(=O)[C@H]2C[C@@H]2c2ccccc2)CC1 [Example 13, 2-(Cyclopentylthio)-1-(4-((1S,2S)-2-phenylcyclopropanecarbonyl)piperazin-1-yl)ethanone] | A (A=≥75%) |
| O=C(CSC1CCCC1)N1CCN(C(=O)C2CC2c2cccs2)CC1 (stereo not drawn) [Example 14] | A (A=≥75%) |

Same assay, conditions: inhibition of IL-2 secretion, dose-response; tested as trans racemate unless otherwise noted; lines naming several Examples = stereoisomer mixture of those Examples

| SMILES | pEC50 |
| --- | --- |
| COC(=O)c1ccc(OCC(=O)N2CCN(C(=O)[C@@H]3C[C@H]3c3ccccc3)CC2)cc1 (relative stereo) [Example 106, Methyl 4-(2-oxo-2-(4-(trans-2-phenylcyclopropanecarbonyl)piperazin-1-yl)ethoxy) benzoate] | 3.70 to 4.00 |
| COC(=O)c1cccc(OCC(=O)N2CCN(C(=O)[C@@H]3C[C@H]3c3ccccc3)CC2)c1 (relative stereo) [Example 109] | 4.00 to 4.30 |
